# Source: ChEMBL document CHEMBL4000250, “Synthesis of new derivatives of 21-imidazolyl-16-dehydropregnenolone as inhibitors of 5α-reductase 2 and with cytotoxic activity in cancer cells” (Bioorg Med Chem, 2017)
# The source made the active and inactive calls. No cut-off for these calls is given here.
# Assays:
# [1] = system: Syrian golden hamster; experiment: Hyperplasia activity in castrated golden hamster assessed as seminal vesicles weight at 2 mg/kg, sc co-administered with testosterone for 6 days (reference value: 200.6 +/- 55 mg); format: functional, Mesocricetus auratus
# [2] = system: MCF7; experiment: Cytotoxicity against human MCF7 cells assessed as growth inhibition at 50 uM after 48 hrs by sulforhodamine B assay relative to control; format: functional; conditions: for inhibition of growth at 50 µM: MCF7, 48 h, read-out: GI
# [3] = biological target: T1, Androgen receptor (Rattus norvegicus) (UniProt P15207); experiment: (§1) Displacement of [3H]-MIB from rat prostate cytosolic androgen receptor by liquid scintillation counting method
# T1 sequence (whole entry): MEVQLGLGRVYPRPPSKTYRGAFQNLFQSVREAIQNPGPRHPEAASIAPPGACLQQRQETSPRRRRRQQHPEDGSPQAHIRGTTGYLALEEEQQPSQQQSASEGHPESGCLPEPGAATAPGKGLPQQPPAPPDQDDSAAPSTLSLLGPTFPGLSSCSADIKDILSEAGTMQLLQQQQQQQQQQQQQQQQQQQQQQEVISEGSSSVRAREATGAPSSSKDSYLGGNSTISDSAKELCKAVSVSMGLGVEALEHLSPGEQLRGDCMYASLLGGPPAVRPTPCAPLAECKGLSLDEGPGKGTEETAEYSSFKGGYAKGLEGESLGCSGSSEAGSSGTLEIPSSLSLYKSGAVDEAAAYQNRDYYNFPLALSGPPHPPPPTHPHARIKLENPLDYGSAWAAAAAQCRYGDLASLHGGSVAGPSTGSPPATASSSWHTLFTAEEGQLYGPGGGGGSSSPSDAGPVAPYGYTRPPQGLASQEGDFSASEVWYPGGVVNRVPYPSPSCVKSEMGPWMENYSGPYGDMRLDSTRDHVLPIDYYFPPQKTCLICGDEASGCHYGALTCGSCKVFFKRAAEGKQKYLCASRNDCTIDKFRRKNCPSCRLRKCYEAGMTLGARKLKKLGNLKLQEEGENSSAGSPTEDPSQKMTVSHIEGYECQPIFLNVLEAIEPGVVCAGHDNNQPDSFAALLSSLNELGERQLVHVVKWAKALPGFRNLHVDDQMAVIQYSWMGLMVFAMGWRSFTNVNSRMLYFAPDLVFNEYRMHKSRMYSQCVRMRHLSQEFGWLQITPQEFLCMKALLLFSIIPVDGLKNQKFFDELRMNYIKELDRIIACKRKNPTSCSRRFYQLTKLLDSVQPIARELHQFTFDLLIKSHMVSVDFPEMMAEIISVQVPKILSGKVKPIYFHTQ
# [4] = system: SK-LU-1; experiment: Cytotoxicity against human SKLU1 cells assessed as growth inhibition at 50 uM after 48 hrs by sulforhodamine B assay relative to control; format: functional; conditions: for inhibition of growth at 50 µM: SK-LU-1, 48 h, read-out: GI
# [5] = system: Syrian golden hamster; experiment: Toxicity in castrated golden hamster at 2 mg/kg, sc co-administered with testosterone for 6 days; format: organism-based, Mesocricetus auratus; conditions: in vivo, 144 h
# [6] = system: Syrian golden hamster; experiment: Hyperplasia activity in castrated golden hamster assessed as prostate weight at 2 mg/kg, sc co-administered with testosterone for 6 days (reference value: 98 +/- 12.6 mg); format: functional, Mesocricetus auratus
# [7] = biological target: T2, 3-oxo-5-alpha-steroid 4-dehydrogenase 1 (Rattus norvegicus, UniProt P24008); experiment: Inhibition of rat liver microsomal 5-alpha reductase 1 assessed as decrease in conversion of testosterone to dihydrotestosterone by chromatographic method
# T2 sequence (P24008 whole entry): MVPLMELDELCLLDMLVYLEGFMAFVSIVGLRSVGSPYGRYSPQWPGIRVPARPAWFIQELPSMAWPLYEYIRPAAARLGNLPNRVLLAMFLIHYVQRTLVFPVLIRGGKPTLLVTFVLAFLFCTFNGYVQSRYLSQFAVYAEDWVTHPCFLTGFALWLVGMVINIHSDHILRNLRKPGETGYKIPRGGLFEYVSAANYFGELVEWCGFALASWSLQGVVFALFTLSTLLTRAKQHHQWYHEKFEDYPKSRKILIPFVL
# [8] = biological target: T3, 3-oxo-5-alpha-steroid 4-dehydrogenase 2 (Homo sapiens, UniProt P31213); experiment: Inhibition of human prostate 5-alpha reductase 2 assessed as decrease in conversion of testosterone to dihydrotestosterone by chromatographic method
# T3 sequence (P31213 whole entry): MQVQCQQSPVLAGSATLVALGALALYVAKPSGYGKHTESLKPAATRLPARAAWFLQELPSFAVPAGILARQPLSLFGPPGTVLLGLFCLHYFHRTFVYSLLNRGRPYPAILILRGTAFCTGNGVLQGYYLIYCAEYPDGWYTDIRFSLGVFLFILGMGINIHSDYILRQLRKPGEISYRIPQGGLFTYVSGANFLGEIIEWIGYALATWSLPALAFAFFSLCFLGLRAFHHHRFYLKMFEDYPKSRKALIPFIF
# [9] = system: Syrian golden hamster; experiment: Hyperplasia activity in castrated golden hamster assessed as diameter of pigmented spot of flank organs at 2 mg/kg, sc administered for 6 days (reference value: 5.65 +/- 1.12 mm); format: functional, Mesocricetus auratus
# [10] = system: PC-3; experiment: Cytotoxicity against human PC3 cells assessed as growth inhibition at 50 uM after 48 hrs by sulforhodamine B assay relative to control; format: functional; conditions: for inhibition of growth at 50 µM: PC-3, 48 h, read-out: GI
# [11] = biological target: T4, Androgen receptor (Rattus norvegicus, UniProt P15207); experiment: as §1
# T4 sequence (P15207 whole entry): T1 sequence (whole entry)
smiles,measurement,setting,value
C[C@]12CC[C@H](OC(=O)C3CCC3)CC1=CC[C@@H]1[C@@H]2CC[C@]2(C)C(C(=O)Cn3ccnc3)=CC[C@@H]12,Activity,[1],145.2 mg
same,growth inhibition (GI),[2],inactive
same,inhibition,[3],inactive
same,growth inhibition (GI),[4],inactive
same,Activity,[5],Non-Toxic
same,Activity,[6],71.3 mg
same,IC50,[7],Not Active
same,IC50,[8]; read-out: IC50,0.0764 µM
same,Activity,[9],3 mm
same,growth inhibition (GI),[10],inactive
C[C@]12CC[C@H](OC(=O)C3CCCC3)CC1=CC[C@@H]1[C@@H]2CC[C@]2(C)C(C(=O)Cn3ccnc3)=CC[C@@H]12,Activity,[1],143.7 mg
same,growth inhibition (GI),[2],inactive
same,inhibition,[3],inactive
same,growth inhibition (GI),[4],inactive
same,Activity,[5],Non-Toxic
same,Activity,[6],65.1 mg
same,IC50,[7],Not Active
same,IC50,[8]; read-out: IC50,0.035 µM
same,Activity,[9],2 mm
same,growth inhibition (GI),[10],inactive
CCC(=O)O[C@H]1CC[C@@]2(C)C(=CC[C@@H]3[C@@H]2CC[C@]2(C)C(C(=O)Cn4ccnc4)=CC[C@@H]32)C1,Activity,[1],231.7 mg
same,inhibition of growth at 50 µM,[2],0%
same,inhibition,[3],inactive
same,inhibition of growth at 50 µM,[4],16.8%
same,Activity,[5],Non-Toxic
same,Activity,[6],88.4 mg
same,IC50,[7],Not Active
same,IC50,[8],Not Active
same,Activity,[9],1.8 mm
same,inhibition of growth at 50 µM,[10],22.6%
CCCCC(=O)O[C@H]1CC[C@@]2(C)C(=CC[C@@H]3[C@@H]2CC[C@]2(C)C(C(=O)Cn4ccnc4)=CC[C@@H]32)C1,Activity,[1],198.33 mg
same,inhibition of growth at 50 µM,[2],51.3%
same,inhibition,[3],inactive
same,inhibition of growth at 50 µM,[4],39.2%
same,Activity,[5],Non-Toxic
same,Activity,[6],80.93 mg
same,IC50,[7],Not Active
same,IC50,[8],Not Active
same,Activity,[9],2.94 mm
same,inhibition of growth at 50 µM,[10],23.7%
CCCC(=O)O[C@H]1CC[C@@]2(C)C(=CC[C@@H]3[C@@H]2CC[C@]2(C)C(C(=O)Cn4ccnc4)=CC[C@@H]32)C1,Activity,[1],217.45 mg
same,inhibition of growth at 50 µM,[2],0%
same,inhibition,[3],inactive
same,inhibition of growth at 50 µM,[4],25.2%
same,Activity,[5],Non-Toxic
same,Activity,[6],83.43 mg
same,IC50,[7],Not Active
same,IC50,[8],Not Active
same,Activity,[9],1.98 mm
same,inhibition of growth at 50 µM,[10],0%
C[C@]12CC[C@H](OC(=O)C3CC3)CC1=CC[C@@H]1[C@@H]2CC[C@]2(C)C(C(=O)Cn3ccnc3)=CC[C@@H]12,Activity,[1],160.9 mg
same,growth inhibition (GI),[2],inactive
same,inhibition,[3],inactive
same,growth inhibition (GI),[4],inactive
same,Activity,[5],Non-Toxic
same,Activity,[6],77.1 mg
same,IC50,[7],Not Active
same,IC50,[8]; read-out: IC50,0.711 µM
same,Activity,[9],3.4 mm
same,growth inhibition (GI),[10],inactive
CC(=O)O[C@H]1CC[C@@]2(C)C(=CC[C@@H]3[C@@H]2CC[C@]2(C)C(C(=O)Cn4ccnc4)=CC[C@@H]32)C1,Activity,[1],200.5 mg
same,inhibition of growth at 50 µM,[2],77.9%
same,inhibition,[3],inactive
same,inhibition of growth at 50 µM,[4],96.7%
same,Activity,[5],Non-Toxic
same,Activity,[6],85.8 mg
same,IC50,[7],Not Active
same,IC50,[8]; read-out: IC50,122 µM
same,Activity,[9],3.06 mm
same,inhibition of growth at 50 µM,[10],79.6%
CCCCCC(=O)O[C@H]1CC[C@@]2(C)C(=CC[C@@H]3[C@@H]2CC[C@]2(C)C(C(=O)Cn4ccnc4)=CC[C@@H]32)C1,Activity,[1],198.33 mg
same,inhibition of growth at 50 µM,[2],28.1%
same,inhibition,[3],inactive
same,inhibition of growth at 50 µM,[4],28.5%
same,Activity,[5],Non-Toxic
same,Activity,[6],71.85 mg
same,IC50,[7],Not Active
same,IC50,[8],Not Active
same,Activity,[9],3.36 mm
same,inhibition of growth at 50 µM,[10],17.2%
C[C@@H]1CC2=CC(=O)CC[C@@H]2[C@H]2CC[C@@]3(C)[C@@H](CC[C@]3(C)O)[C@@H]21 [MIBOLERONE],IC50,[11],0.001 µM
C[C@]12CC[C@H](OC(=O)C3CCCCCC3)CC1=CC[C@@H]1[C@@H]2CC[C@]2(C)C(C(=O)Cn3ccnc3)=CC[C@@H]12,Activity,[1],143.6 mg
same,growth inhibition (GI),[2],inactive
same,inhibition,[3],inactive
same,growth inhibition (GI),[4],inactive
same,Activity,[5],Non-Toxic
same,Activity,[6],70.8 mg
same,IC50,[7],Not Active
same,IC50,[8],Not Active
same,Activity,[9],2.8 mm
same,growth inhibition (GI),[10],inactive
CC(=O)O[C@H]1CC[C@@]2(C)C(=CC[C@@H]3[C@@H]2CC[C@]2(C)C(C(C)=O)=CC[C@@H]32)C1,inhibition of growth at 50 µM,[2],25.5%
same,inhibition,[3],inactive
same,inhibition of growth at 50 µM,[4],12.8%
same,IC50,[7],Not Active
same,IC50,[8],Not Active
same,inhibition of growth at 50 µM,[10],21.4%
C[C@]12CC[C@H](OC(=O)C3CCCCC3)CC1=CC[C@@H]1[C@@H]2CC[C@]2(C)C(C(=O)Cn3ccnc3)=CC[C@@H]12,Activity,[1],143.68 mg
same,growth inhibition (GI),[2],inactive
same,inhibition,[3],inactive
same,growth inhibition (GI),[4],inactive
same,Activity,[5],Non-Toxic
same,Activity,[6],54.3 mg
same,IC50,[7],Not Active
same,IC50,[8]; read-out: IC50,0.0293 µM
same,Activity,[9],2.4 mm
same,growth inhibition (GI),[10],inactive
C[C@]12CC[C@H](O)CC1=CC[C@@H]1[C@@H]2CC[C@]2(C)C(C(=O)Cn3ccnc3)=CC[C@@H]12,inhibition of growth at 50 µM,[2],89.4%
same,inhibition,[3],inactive
same,inhibition of growth at 50 µM,[4],74.8%
same,IC50,[7],Not Active
same,IC50,[8]; read-out: IC50,119 µM
same,inhibition of growth at 50 µM,[10],96.2%
